Test results from PubChem BioAssay (NCI).
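Cells were grown in 96-well plates and exposed to each compound for 48 hours at five concentrations; endpoints were interpolated linearly between bracketing concentrations, or set to the highest concentration if not reached. At the GI50, growth is halved. TGI: total growth inhibition.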

Experiments:
Experiment in all cases: NCI anticancer screen, dose series, 48 h
NCI-H460 lung = system: NCI-H460 lung
UACC-257 melanoma = system: UACC-257 melanoma
HL-60(TB) leukemia = system: HL-60(TB) leukemia
COLO 205 colon = system: COLO 205 colon
ACHN renal = system: ACHN renal
A498 renal = system: A498 renal
LOX IMVI melanoma = system: LOX IMVI melanoma
SW-620 colon = system: SW-620 colon
SF-268 CNS = system: SF-268 CNS
T-47D breast = system: T-47D breast
NCI/ADR-RES ovarian = system: NCI/ADR-RES ovarian
MDA-MB-231 breast = system: MDA-MB-231 breast
U251 CNS = system: U251 CNS
786-0 renal = system: 786-0 renal
MCF7 breast = system: MCF7 breast
SNB-19 CNS = system: SNB-19 CNS
RXF 393 renal = system: RXF 393 renal
MOLT-4 leukemia = system: MOLT-4 leukemia
OVCAR-3 ovarian = system: OVCAR-3 ovarian
SK-OV-3 ovarian = system: SK-OV-3 ovarian
UO-31 renal = system: UO-31 renal
PC-3 prostate = system: PC-3 prostate
M14 melanoma = system: M14 melanoma
HCT-116 colon = system: HCT-116 colon
SF-295 CNS = system: SF-295 CNS
HT29 colon = system: HT29 colon
CAKI-1 renal = system: CAKI-1 renal
IGROV1 ovarian = system: IGROV1 ovarian
RPMI-8226 leukemia = system: RPMI-8226 leukemia
EKVX NSCLC = system: EKVX NSCLC
HOP-62 NSCLC = system: HOP-62 NSCLC
HOP-92 NSCLC = system: HOP-92 NSCLC
MALME-3M melanoma = system: MALME-3M melanoma
OVCAR-8 ovarian = system: OVCAR-8 ovarian
A549 NSCLC = system: A549 NSCLC
DU-145 prostate = system: DU-145 prostate
HCC-2998 colon = system: HCC-2998 colon
NCI-H226 lung = system: NCI-H226 lung
BT-549 breast = system: BT-549 breast
HS 578T breast = system: HS 578T breast
OVCAR-4 ovarian = system: OVCAR-4 ovarian
HCT-15 colon = system: HCT-15 colon
KM12 colon = system: KM12 colon
UACC-62 melanoma = system: UACC-62 melanoma
MDA-MB-435 = system: MDA-MB-435
CCRF-CEM leukemia = system: CCRF-CEM leukemia
NCI-H522 lung = system: NCI-H522 lung
NCI-H23 lung = system: NCI-H23 lung
K-562 leukemia = system: K-562 leukemia
SF-539 CNS = system: SF-539 CNS
SK-MEL-28 melanoma = system: SK-MEL-28 melanoma
SK-MEL-5 melanoma = system: SK-MEL-5 melanoma
SN12C renal = system: SN12C renal
OVCAR-5 ovarian = system: OVCAR-5 ovarian
SR leukemia = system: SR leukemia
SK-MEL-2 melanoma = system: SK-MEL-2 melanoma
SNB-75 CNS = system: SNB-75 CNS

## CCN(Cc1cccc(OC)c1)c1ccc(CO)c(Cl)c1
NCI-H460 lung
  GI50: 0.272 µM
  TGI: 14.1 µM
UACC-257 melanoma
  GI50: 0.121 µM
  TGI: 0.295 µM
HL-60(TB) leukemia
  GI50: 14.6 µM
  TGI: 51.7 µM
COLO 205 colon
  GI50: 1.02 µM
  TGI: 4.35 µM
ACHN renal
  GI50: 26.5 µM
  TGI: 96.8 µM
A498 renal
  GI50: 0.0598 µM
  TGI: 0.191 µM
LOX IMVI melanoma
  GI50: 14.5 µM
  TGI: 27.9 µM
SW-620 colon
  GI50: 0.763 µM
  TGI: > 100 µM
SF-268 CNS
  GI50: 22.5 µM
  TGI: 71.6 µM
T-47D breast
  GI50: 0.165 µM
  TGI: 1.83 µM
NCI/ADR-RES ovarian
  GI50: 13.7 µM
  TGI: 43.4 µM
MDA-MB-231 breast
  GI50: 14.9 µM
  TGI: 44 µM
U251 CNS
  GI50: 0.88 µM
  TGI: 19.9 µM
786-0 renal
  GI50: 12.4 µM
  TGI: 38.5 µM
MCF7 breast
  GI50: 0.196 µM
  TGI: 14.5 µM
SNB-19 CNS
  GI50: 24 µM
  TGI: > 100 µM
RXF 393 renal
  GI50: 11.9 µM
  TGI: 28.8 µM
MOLT-4 leukemia
  GI50: 21.2 µM
  TGI: > 71.9 µM
OVCAR-3 ovarian
  GI50: 0.477 µM
  TGI: 4.34 µM
SK-OV-3 ovarian
  GI50: 8.52 µM
  TGI: 33.6 µM
UO-31 renal
  GI50: 8.4 µM
  TGI: 45.1 µM
PC-3 prostate
  GI50: 19.8 µM
  TGI: 74.3 µM
M14 melanoma
  GI50: 16.2 µM
  TGI: 41 µM
HCT-116 colon
  GI50: 0.0731 µM
  TGI: 11.2 µM
SF-295 CNS
  GI50: 0.889 µM
  TGI: 22 µM
HT29 colon
  GI50: 2.13 µM
  TGI: 17.3 µM
CAKI-1 renal
  GI50: 0.901 µM
  TGI: 35.3 µM
IGROV1 ovarian
  GI50: 0.078 µM
  TGI: 0.833 µM
RPMI-8226 leukemia
  GI50: 6.44 µM
  TGI: 47.9 µM
EKVX NSCLC
  GI50: 19.9 µM
  TGI: 71.3 µM
HOP-62 NSCLC
  GI50: 3.23 µM
  TGI: 39.2 µM
HOP-92 NSCLC
  GI50: 2.11 µM
  TGI: 20.5 µM
MALME-3M melanoma
  GI50: 17.5 µM
  TGI: 40.9 µM
OVCAR-8 ovarian
  GI50: 12.6 µM
  TGI: 45.7 µM
A549 NSCLC
  GI50: 2.06 µM
  TGI: 27.7 µM
DU-145 prostate
  GI50: 21.1 µM
  TGI: 67.5 µM
HCC-2998 colon
  GI50: 12.5 µM
  TGI: 33.8 µM
NCI-H226 lung
  GI50: 0.0957 µM
  TGI: 0.231 µM
BT-549 breast
  GI50: 13.9 µM
  TGI: 28.9 µM
HS 578T breast
  GI50: 18.3 µM
  TGI: 61.9 µM
OVCAR-4 ovarian
  GI50: 0.291 µM
  TGI: 14.3 µM
HCT-15 colon
  GI50: 14.8 µM
  TGI: 66.6 µM
KM12 colon
  GI50: 17.1 µM
  TGI: 40.5 µM
UACC-62 melanoma
  GI50: 0.0839 µM
  TGI: 0.48 µM
MDA-MB-435
  GI50: 16.6 µM
  TGI: 35.6 µM
CCRF-CEM leukemia
  GI50: 24.8 µM
  TGI: > 82.6 µM
NCI-H522 lung
  GI50: 9.51 µM
  TGI: 32.6 µM
NCI-H23 lung
  GI50: 13.6 µM
  TGI: 51 µM
K-562 leukemia
  GI50: 1.92 µM
  TGI: > 86.5 µM
SF-539 CNS
  GI50: 19 µM
  TGI: 40.5 µM
SK-MEL-28 melanoma
  GI50: 14.7 µM
  TGI: 35.8 µM
SK-MEL-5 melanoma
  GI50: 10.2 µM
  TGI: 22.7 µM
SN12C renal
  GI50: 12.9 µM
  TGI: 32.1 µM
OVCAR-5 ovarian
  GI50: 0.157 µM
  TGI: 0.606 µM
SR leukemia
  GI50: 22.9 µM
  TGI: 66.4 µM
SK-MEL-2 melanoma
  GI50: 2.81 µM
  TGI: 21.3 µM
SNB-75 CNS
  GI50: 16.3 µM
  TGI: 62 µM
